In assay [1] the test system is ENR+CD organoids (ISC to Paneth cell differentiation). Put plainly: Primary screen: basal (non-stimulated) lysozyme secretion LYZ.NS, 2.5-D 384-well ENR+CD organoid differentiation. In kind it is cell-based, mouse. The note with it: primary screen; for Z.LYZ.NS: standard z score. An excerpt:
(§1) High-throughput screening.

For assay [2] the test system is unchanged. Put plainly: Primary screen: CCh-stimulated lysozyme secretion LYZ.S, 2.5-D 384-well ENR+CD organoid differentiation. In kind it is cell-based, mouse. The note with it: primary screen.
Excerpt: as §1

The next assay has as its system ENR+CD organoids. The assay can be described thus: Primary screen: ATP (CellTiter-Glo 3D, CTG) cell number/viability, 2.5-D 384-well ENR+CD organoids.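 On all read-outs here: compounds given at plating and again on day 3 over a 6-day differentiation from ENR+CV stem-cell-enriched precursors, ATP measured on day 6, plate median as control.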 Particulars: primary screen; for Z.CTG: standard z score. In general terms: Cellular ATP, detected with luciferase, serves as a proxy for viable cell number.

Six compounds from patent US20220323406A1, “METHODS AND COMPOSITIONS FOR DIFFERENTIATING STEM CELLS” (Massachusetts Institute of Technology, priority 2019, published 2022) can be followed below.

Counter-ions that a name gives are not always drawn.

In the case of `CC(C)(C)c1cc(C(C)(C)C)c(NC(=O)c2c[nH]c3ccccc3c2=O)cc1O` [Ivacaftor (VX-770)], the “Dose.FC.LYZ.NS (log2 fold change)” value is reported as 0.099 in assay [1] (dose 0.08 uM), 0.127 in assay [1] (dose 0.40 uM), 0.082 in assay [1] (dose 2.00 uM) and −0.142 in assay [1] (dose 10.00 uM). In addition, the “Z.LYZ.NS (standard z score)” value in assay [1] (dose 0.08 uM) is on record as 0.864; in assay [1] (dose 0.40 uM) it was 1.109; in assay [1] (dose 2.00 uM), 0.717; in assay [1] (dose 10.00 uM), −1.240. For the same compound, the “Dose.FC.LYZ.S (log2 fold change)” value is 0.132 in assay [2] (dose 0.08 uM), 0.189 in assay [2] (dose 0.40 uM), 0.019 in assay [2] (dose 2.00 uM) and −0.253 in assay [2] (dose 10.00 uM). In addition, the “Dose.FC.CTG (log2 fold change)” value is recorded as 0.234 in the assay with ENR+CD organoids (dose 0.08 uM), 0.145 with ENR+CD organoids (dose 0.40 uM), −0.148 in the assay on ENR+CD organoids (dose 2.00 uM) and −0.470 with ENR+CD organoids (dose 10.00 uM). Further, the “Z.CTG (standard z score)” value in the assay with ENR+CD organoids (dose 0.08 uM) is reported as 0.558; in the assay on ENR+CD organoids (dose 0.40 uM) it was 0.347; with ENR+CD organoids (dose 2.00 uM) it was −0.354; with ENR+CD organoids (dose 10.00 uM), −1.123.
Regarding `C=CC(=O)N1CCC[C@@H](n2nc(-c3ccc(Oc4ccccc4)cc3)c3c(N)ncnc32)C1` [Ibrutinib (PCI-32765)], the “Z.LYZ.NS (standard z score)” value in assay [1] (dose 0.08 uM) was −0.619; in assay [1] (dose 0.40 uM) it was −1.225; in assay [1] (dose 2.00 uM), −1.763; in assay [1] (dose 10.00 uM), −1.737. Moreover, the entries for the “Dose.FC.LYZ.S (log2 fold change)” value in assay [2] (dose 0.08 uM), in assay [2] (dose 0.40 uM) and in assay [2] (dose 10.00 uM) were −0.139, −0.206 and −0.312, respectively. For the same compound, the “Z.CTG (standard z score)” value was −0.065 with ENR+CD organoids (dose 0.08 uM), −1.112 in the assay on ENR+CD organoids (dose 0.40 uM), −1.244 with ENR+CD organoids (dose 2.00 uM) and −2.224 in the assay with ENR+CD organoids (dose 10.00 uM).
Consider `O=C(c1cncc(Br)c1)N1CCC(N2CCCC2)CC1` [UNC669], for which the Dose.FC.LYZ.NS was 0.066 log2 fold change in assay [1] (dose 0.08 uM), −0.006 log2 fold change in assay [1] (dose 0.40 uM), 0.070 log2 fold change in assay [1] (dose 2.00 uM) and 0.029 log2 fold change in assay [1] (dose 10.00 uM). Further, the “Z.LYZ.NS (standard z score)” value in assay [1] (dose 0.08 uM) is 0.578; in assay [1] (dose 0.40 uM), −0.048; in assay [1] (dose 2.00 uM), 0.606; in assay [1] (dose 10.00 uM) it was 0.249. For the same compound, the Dose.FC.LYZ.S is given as 0.047 log2 fold change in assay [2] (dose 0.08 uM), −0.029 log2 fold change in assay [2] (dose 0.40 uM), 0.025 log2 fold change in assay [2] (dose 2.00 uM) and 0.002 log2 fold change in assay [2] (dose 10.00 uM). The Dose.FC.CTG is listed as −0.095 log2 fold change in the assay on ENR+CD organoids (dose 0.08 uM), 0.096 log2 fold change in the assay with ENR+CD organoids (dose 0.40 uM), −0.235 log2 fold change with ENR+CD organoids (dose 2.00 uM) and 0.073 log2 fold change with ENR+CD organoids (dose 10.00 uM). In addition, the “Z.CTG (standard z score)” value is −0.226 in the assay with ENR+CD organoids (dose 0.08 uM), 0.228 in the assay with ENR+CD organoids (dose 0.40 uM), −0.561 in the assay with ENR+CD organoids (dose 2.00 uM) and 0.174 in the assay with ENR+CD organoids (dose 10.00 uM).
With `Cc1c(-c2ccc(O)cc2)n(Cc2ccc(OCCN3CCCCCC3)cc2)c2ccc(O)cc12` [Bazedoxifene HCl], the Dose.FC.LYZ.NS in assay [1] (dose 0.08 uM) is 0.159 log2 fold change; in assay [1] (dose 0.40 uM) it was 0.026 log2 fold change; in assay [1] (dose 2.00 uM), −0.146 log2 fold change; in assay [1] (dose 10.00 uM) it was −0.280 log2 fold change. In addition, the “Z.LYZ.NS (standard z score)” value in assay [1] (dose 0.08 uM) is 1.386; in assay [1] (dose 0.40 uM) it was 0.229; in assay [1] (dose 2.00 uM), −1.267; in assay [1] (dose 10.00 uM) it was −2.442. The Dose.FC.LYZ.S is on record as 0.096 log2 fold change in assay [2] (dose 0.08 uM), 0.065 log2 fold change in assay [2] (dose 0.40 uM), −0.189 log2 fold change in assay [2] (dose 2.00 uM) and −0.361 log2 fold change in assay [2] (dose 10.00 uM). Moreover, the Dose.FC.CTG is given as 0.422 log2 fold change with ENR+CD organoids (dose 0.08 uM), 0.365 log2 fold change in the assay on ENR+CD organoids (dose 0.40 uM), −0.780 log2 fold change in the assay on ENR+CD organoids (dose 2.00 uM) and −1.148 log2 fold change in the assay on ENR+CD organoids (dose 10.00 uM).
On to `OC[C@H]1O[C@@H](c2ccc(Cl)c(Cc3ccc(O[C@H]4CCOC4)cc3)c2)[C@H](O)[C@@H](O)[C@@H]1O` [Empagliflozin (BI 10773)], for which the Dose.FC.LYZ.NS is −0.006 log2 fold change in assay [1] (dose 0.08 uM), −0.034 log2 fold change in assay [1] (dose 0.40 uM), −0.009 log2 fold change in assay [1] (dose 2.00 uM) and 0.017 log2 fold change in assay [1] (dose 10.00 uM). Besides, the Z.LYZ.NS in assay [1] (dose 0.08 uM) is −0.052; in assay [1] (dose 0.40 uM), −0.294; in assay [1] (dose 2.00 uM), −0.081; in assay [1] (dose 10.00 uM), 0.144. Further, the Dose.FC.LYZ.S in assay [2] (dose 0.08 uM) is given as −0.051 log2 fold change; in assay [2] (dose 0.40 uM), −0.055 log2 fold change; in assay [2] (dose 2.00 uM) it was −0.103 log2 fold change; in assay [2] (dose 10.00 uM) it was −0.022 log2 fold change. For the same compound, the Dose.FC.CTG is −0.296 log2 fold change in the assay with ENR+CD organoids (dose 0.08 uM), −0.075 log2 fold change with ENR+CD organoids (dose 0.40 uM), −0.192 log2 fold change in the assay with ENR+CD organoids (dose 2.00 uM) and −0.134 log2 fold change in the assay on ENR+CD organoids (dose 10.00 uM). The Z.CTG with ENR+CD organoids (dose 0.08 uM) is listed as −0.707; in the assay on ENR+CD organoids (dose 0.40 uM) it was −0.178; with ENR+CD organoids (dose 2.00 uM) it was −0.458; in the assay on ENR+CD organoids (dose 10.00 uM), −0.320.
Consider `NC(=O)Nc1cc(-c2cccc(F)c2)sc1C(=O)N[C@H]1CCCNC1` [AZD7762], for which the Dose.FC.LYZ.NS is on record as 0.010 log2 fold change in assay [1] (dose 0.08 uM), −0.159 log2 fold change in assay [1] (dose 0.40 uM), −0.211 log2 fold change in assay [1] (dose 2.00 uM) and −0.220 log2 fold change in assay [1] (dose 10.00 uM). The “Z.LYZ.NS (standard z score)” value in assay [1] (dose 0.08 uM) is given as 0.084; in assay [1] (dose 0.40 uM) it was −1.385; in assay [1] (dose 2.00 uM), −1.835; in assay [1] (dose 10.00 uM), −1.917. For the same compound, the Dose.FC.LYZ.S in assay [2] (dose 0.08 uM) is on record as 0.019 log2 fold change; in assay [2] (dose 0.40 uM), −0.251 log2 fold change; in assay [2] (dose 2.00 uM), −0.342 log2 fold change; in assay [2] (dose 10.00 uM), −0.369 log2 fold change. Also, the Dose.FC.CTG in the assay on ENR+CD organoids (dose 0.08 uM) is listed as 0.054 log2 fold change; with ENR+CD organoids (dose 0.40 uM), −0.384 log2 fold change; in the assay on ENR+CD organoids (dose 2.00 uM) it was −0.804 log2 fold change; with ENR+CD organoids (dose 10.00 uM), −1.361 log2 fold change. In addition, the “Z.CTG (standard z score)” value in the assay on ENR+CD organoids (dose 0.08 uM) is 0.129; with ENR+CD organoids (dose 0.40 uM), −0.917; with ENR+CD organoids (dose 2.00 uM) it was −1.920; with ENR+CD organoids (dose 10.00 uM), −3.251.
